The text below walks through data of patent US10072026B2, “Crystalline form of 3-((1R,3s,5S)-3-((7-((5-methyl-1H-pyrazol-3-yl)amino)-1,6-naphthyridin-5-yl)amino)-8-azabicyclo[3.2.1]octan-8-yl)propanenitrile” (priority 2015, dated 2018).

A short description of one series: in vivo. The following applies: Sprague Dawley, rat, po, 5 mg/kg. Also noted: species or system Sprague Dawley rats. As for the experimental part:
Assay 5: Colon Pharmacokinetics in Rats
Test compounds were individually formulated in 0.5% methyl-cellulose in water and dosed via oral gavage at 5 mg/kg to Sprague Dawley rats. At various time points (typically 1, 2, 4, 6, 24 hr) post dosing, blood samples were removed via cardiac puncture and intact colons were excised from the rats. Blood samples were centrifuged at 1500×g for 15 min to collect plasma. Colons were washed with ice cold phosphate buffered saline (PBS), weighed, and homogenized at a dilution of 1:10 in PBS. Plasma and colon levels of test compound were determined by LC-MS analysis against analytical standards constructed into a standard curve in the test matrix. A colon to plasma ratio was determined as the ratio of the colon AUC to the plasma AUC in μg hr/g.

Series [1] in a line: Pharmacokinetics in plasma and the GI tract in rats. Conditions: rat, 5 mg/kg oral, all time points (0.5-24 hr); below limit of quantitation. It is filed as in vivo, Sprague Dawley rats. As for the experimental part:
Assay 6: Pharmacokinetics in Plasma and the GI Tract in Rats and Dogs A test compound was dosed to male Sprague Dawley rats (n=3) as described in Assay 5. […] At all time points, the plasma concentration was below the limit of quantitation of 0.001 μg/mL.

Series [2] in a line: Pharmacokinetics in plasma and the GI tract in dogs. It is filed as in vivo. Conditions: male, beagle, GI tissue (duodenum, ileum, cecum, colon) and plasma, dog, 5 mg/kg oral. As for the experimental part: Assay 6: Pharmacokinetics in Plasma and the GI Tract in Rats and Dogs
An analogous experiment was performed in dogs. Male beagle dogs (n=2) were dosed via oral gavage with 5 mg/kg of test compound, formulated as above. In dog number 1, plasma samples were taken at 0.25, 1, 2, 4, 6, and 24 hr post dosing. In dog number 2, plasma samples were taken to 6 hr. In both dog number 1 (at 24 hr) and dog number 2 (at 6 hr) the GI tract was removed and segmented as follows: duodenum, ileum, cecum and the colon segmented into equal thirds (proximal, middle, and distal colon). For each of the GI segments, an approximately 2 cm piece was excised in the middle of the segment. Each was washed thoroughly in ice cold PBS buffer and then homogenized in 5 volumes of PBS buffer and analyzed as above. […] The GI tissue to plasma ratio ranged from about 7 to about 30 for collections conducted at 24 hours post oral dose.

Series [3] has as its system oxazolone-induced colitis. Description: Mouse model of oxazolone-induced colitis. The class given is in vivo, BALB/C mice. The method in brief: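 Adult BALB/c mice skin-sensitized with 4% oxazolone on day 1, then challenged intrarectally 7 days later with 50 μL 1% oxazolone. Compound dosed PO, BID or TID, starting one day before challenge. Blinded Disease Activity Index (stool consistency, bleeding, weight loss, averaged) scored 2 days post-challenge.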

In a further series the test system is mouse splenic NK cells. As to the kind of experiment: Immunosuppression effects in mouse splenic natural killer (NK) cells. The class given is in vivo, Balb/C mice. Conditions: mouse spleen, PO BID three days. How it is done: Adult male Balb/C mice (12-14 weeks of age) from Harlan were used for the study. […] Spleens were harvested 1 or 2 h post last dose and crushed immediately for cell subtype staining. Prior to fixation, fluorophore-labelled antibodies for CD19 (FITC; B cells), CD3e (PE; pan T cells) and DX5 (APC; NK cells) were incubated with splenocyte samples from each animal to allow for simultaneous, multiple subtype % analysis on the flow cytometer. The number of total spleen cells for each animal was measured by Scepter™ 2.0 Handheld Automated Cell Counter. The absolute number of lymphocyte subtype population (e.g., splenic B, T and NK cells) was calculated from the percentage of each subtype times total spleen cells for each animal. A one way ANOVA, with Dunnett's post hoc test, was used to compare the splenic lymphocytes number of the vehicle and test compound groups. The a level was set at p<0.05. Data were presented as the mean±SEM for each group.

A short description of series [4]: First in human study of safety, tolerability and pharmacokinetics in healthy subjects. Conditions: for Cmax at 14 days / Cmax: human, plasma, oral, healthy subjects; for Cmax at 14 days: 14 days administration up to 300 mg; for Cmax: single dose up to 1000 mg. It is filed as in vivo. As for the experimental part:
Assay 9: First in Human Study to Evaluate the Safety, Tolerability and Pharmacokinetics in Healthy Subjects
The compound of Example 1 was evaluated in a double-blinded, randomized, placebo-controlled, single ascending dose (SAD) and multiple ascending dose (MAD) study of safety, tolerability, and pharmacokinetics in healthy subjects. Pharmacokinetic samples were collected up to 72 hours post the final dose in both the SAD study (after the first dose) and MAD study (after 14 days of once-daily dosing). The SAD study enrolled 5 cohorts and the MAD study enrolled 4 cohorts totaling 72 subjects, of which 71 completed the dosing period.
Plasma pharmacokinetic (PK) parameters were determined by non-compartmental analysis using WinNonLin Version 6.4.0 (Pharsight, St Louis, Mo.). The plasma PK parameter presented here is:
Cmax: maximum concentration in plasma

For series [5], the system named is IL-4 induced STAT6 phosphorylation in THP-1 human monocytic cells. As to the kind of experiment: Cellular JAK potency assay, THP-1. The following applies: Homo sapiens, THP-1, read-out: THP-1 IL4 pIC50 (converted).
The test system of series [6] is IL-13 induced STAT6 phosphorylation in BEAS-2B human lung epithelial cells. Description: AlphaScreen cellular JAK potency assay, BEAS-2B. Conditions: Homo sapiens, BEAS-2B, read-out: BEAS2B pIC50 (converted). On the technique in general: In Alpha technology, singlet oxygen from a donor bead excites a nearby acceptor bead.
Series [7] is described as follows: Dynamic moisture sorption assessment. The class given is physicochemical. As for the experimental part:
The DMS run was performed isothermally at 25° C.

A short description of series [8]: Solid state stability assessment. It is filed as physicochemical. Also noted: Impurity at RRT 0.96 / Impurity at RRT 1.84: unit not given here. From the text: Solid State Stability Assessment
At specific intervals, the contents of a representative sample was removed and analyzed by HPLC for chemical purity and by Karl Fischer for water content.

The mark [9] stands for this setting: read-out: average Cmax plasma concentration.
The mark [10] stands for this setting: read-out: individual subject Cmax.

Like-named read-outs stand apart in the source and are kept apart here.

In the series “in vivo”, `Cc1cc(Nc2cc3ncccc3c(N[C@@H]3C[C@H]4CC[C@@H](C3)N4CCC#N)n2)n[nH]1` [Example 1, 3-((1R,3s,5S)-3-((7-((5-methyl-1H-pyrazol-3-yl)amino)-1,6-naphthyridin-5-yl)amino)-8-azabicyclo[3.2.1]octan-8-yl)propanenitrile] yielded a Kp above 450. The same molecule came in with a plasma concentration in series [1] below 1 ng/mL. Also, the Kp at 6 hours in series [2] (6 hours post dose, read-out: ratio of concentration in GI tissue to plasma) lay within 9 to 165. Also, the Kp at 24 hours in [2] (24 hours post dose, read-out: GI tissue to plasma ratio) was in the range of 7 to 30. In addition, the “minimal dose that caused a significant anti-colitic effect” value in series [3] (mouse oxazolone-induced colitis) was found to be 1 mg/kg. Besides, in series [3] (mouse, PO, 1, 3, and/or 10 mg/kg BID), the “decrease in DAI score as compared with vehicle treated animals” value is recorded as “statistically significant decrease”. In addition, in the series with mouse splenic NK cells, the “treatment effect on B and T cell populations” value is “No treatment effect”. The “drug concentration in stool samples” value in series [4] (healthy human subjects) is reported as “high drug concentration”. In addition, the Cmax at 14 days in series [4] (setting [9]) is below 15 ng/mL; in [4] (setting [10]), at most 30 ng/mL. The Cmax in [4] (setting [9]) is below 50 ng/mL; in [4] (setting [10]), at most 100 ng/mL. Further, the IC50 in series [5] and in series [6] was 31.6 to 200 nM in each case.
`Cc1cc(Nc2cc3ncccc3c(N[C@@H]3C[C@H]4CC[C@@H](C3)N4CCC#N)n2)n[nH]1` [Form I, 3-((1R,3s,5S)-3-((7-((5-methyl-1H-pyrazol-3-yl)amino)-1,6-naphthyridin-5-yl)amino)-8-azabicyclo[3.2.1]octan-8-yl)propanenitrile]: the “weight gain (moisture sorption)” value in series [7] (5% to 90% relative humidity, room temperature, listed as Crystalline 3-(1R,3s,5S)-3-((7-((5-methyl-1H-pyrazol-3-yl)amino)-1,6-naphthyrid))) is “less than 0.15%”. In addition, the hygroscopicity result in series [7] (two cycles of sorption and desorption, 25° C.) is “non-hygroscopic”. In addition, the “changes in chemical content and impurity profile” value in [8] (3 months at 40° C. and 75% relative humidity) was “no statistically significant changes”. Moreover, in series [8] (T = 0), the Assay was 97.4 % w/w, the HPLC purity is recorded as 99.76 a/a %, the “Impurity at RRT 0.96” value is on record as 0.07 and the “Impurity at RRT 1.84” value was found to be 0.08. Further, in series [8] (T = 0), the “Water (KF)” value is on record as below 0.2 % w/w. For the same molecule, in series [8] (T = 1 Month, 40° C./75% RH), the Assay was determined as 98.7 % w/w, the HPLC purity is given as 99.79 a/a %, the “Impurity at RRT 0.96” value was 0.07 and the “Impurity at RRT 1.84” value worked out at 0.08. Moreover, in [8] (T = 3 Month, 25° C./60% RH), the Assay came to 96.3 % w/w, the HPLC purity is 99.77 a/a %, the “Impurity at RRT 0.96” value was determined as 0.07 and the “Impurity at RRT 1.84” value is 0.05. Also, in [8] (T = 3 Month, 40° C./75% RH), the Assay is 93.8 % w/w, the HPLC purity was found to be 99.75 a/a %, the “Impurity at RRT 0.96” value is reported as 0.07 and the “Impurity at RRT 1.84” value is given as 0.05. In addition, the “Water (KF)” value in [8] (T = 3 Month, 40° C./75% RH) is reported as below 0.2 % w/w.
